According to ChEMBL document CHEMBL1138499, “Anti-AIDS agents. 78. Design, synthesis, metabolic stability assessment, and antiviral evaluation of novel betulinic acid derivatives as potent anti-human immunodeficiency virus (HIV) agents” (J Med Chem, 2009):
pEC50: −log10 of the molar value.

Columns and labels:
[1] = Metabolic stability in human liver microsomes assessed as drug remaining at 1 mg/mL after 5 mins by HPLC; format: ADME, Microsome; details: read-out: Stability
MT2 = details: human
Description: Cytotoxicity against human MT2 cells by XTT assay

[2] = Metabolic stability in human liver microsomes assessed as drug remaining at 1 mg/mL after 60 mins by HPLC; format: ADME, Microsome; details: read-out: Stability
[3] = Therapeutic index, ratio of CC50 for human MT2 cells to EC50 for HIV1 3B; format: cell-based; details: read-out: TI
[4] = Metabolic stability in human liver microsomes assessed as drug remaining at 1 mg/mL after 120 mins by HPLC; format: ADME, Microsome; details: read-out: Stability
[5] = Metabolic stability in human liver microsomes assessed as drug remaining at 1 mg/mL after 30 mins by HPLC; format: ADME, Microsome; details: read-out: Stability
[6] = tested on: Human immunodeficiency virus 1; assay: Antiviral activity against HIV1 3B infected in human MT2 cells assessed as p24 antigen level after 4 days by ELISA; format: functional, organism-based; details: Human immunodeficiency virus 1, 3B, MT2, 96 h
[7] = Metabolic stability in human liver microsomes assessed as drug remaining at 1 mg/mL after 15 mins by HPLC; format: ADME, Microsome; details: read-out: Stability
[8] = tested on: Human immunodeficiency virus 1; assay: Antiviral activity against HIV1 NL4-3 infected in human MT4 cells assessed as p24 antigen level after 4 days by ELISA; format: functional, organism-based; details: Human immunodeficiency virus 1, NL4-3, MT4, 96 h
MT4 = assay: Cytotoxicity against human MT4 cells by XTT assay; format: cell-based
[9] = tested on: Human immunodeficiency virus 1; assay: Antiviral activity against HIV1 3B infected in human MT2 cells assessed as p24 antigen level at their respective CC50 concentration after 4 days by ELISA; format: functional, organism-based
[10] = Therapeutic index, ratio of CC50 for human MT4 cells to EC50 for HIV1 NL4-3; format: cell-based; details: read-out: TI

SMILES | CC50 (MT2) [µM] | selectivity ratio [3] | pEC50 [6] | EC50 [9] | other results
C=C(C)[C@@H]1CC[C@]2(C(=O)NCCCCCCCC(=O)O)CC[C@]3(C)[C@H](CC[C@@H]4[C@@]5(C)CC[C@H](O)C(C)(C)[C@@H]5CC[C@]43C)[C@@H]12 | 33.4 | 10.1 | 5.48 |  | remaining at 5 min, 1 mg/mL [1]: 93.4%; remaining at 1 h, 1 mg/mL [2]: 40.1%; remaining at 2 h, 1 mg/mL [4]: 7.9%; remaining at 0.5 h, 1 mg/mL [5]: 61.9%; remaining at 0.25 h, 1 mg/mL [7]: 70.7%
C=C(C)[C@@H]1CC[C@]2(C(=O)NCCCCCCCC(=O)N[C@@H](CC(C)C)[C@H](O)CC(=O)O)CC[C@]3(C)[C@H](CC[C@@H]4[C@@]5(C)CC[C@H](O)C(C)(C)[C@@H]5CC[C@]43C)[C@@H]12 |  |  |  |  | pEC50 [8]: 7.05; CC50 (MT4): > 10 µM
C=C(C)[C@@H]1CC[C@]2(C(=O)N[C@@H](CC(C)C)C(=O)O)CC[C@]3(C)[C@H](CC[C@@H]4[C@@]5(C)CC[C@H](O)C(C)(C)[C@@H]5CC[C@]43C)[C@@H]12 | 29.8 |  |  | Not Active | 
C=C(C)[C@@H]1CC[C@]2(C(=O)N3CCC(CCCC(=O)N4CCOCC4)CC3)CC[C@]3(C)[C@H](CC[C@@H]4[C@@]5(C)CC[C@H](OC(=O)CC(C)(C)C(=O)O)C(C)(C)[C@@H]5CC[C@]43C)[C@@H]12 | 19.2 | 1750 | 7.96 |  | selectivity ratio [10]: 121; pEC50 [8]: 7.15; CC50 (MT4): 8.8 µM
C=C(CBr)[C@@H]1CC[C@]2(C(=O)N[C@@H](CC(C)C)C(=O)O)CC[C@]3(C)[C@H](CC[C@@H]4[C@@]5(C)CC[C@H](O)C(C)(C)[C@@H]5CC[C@]43C)[C@@H]12 | 26.8 |  |  | Not Active | 
C=C(CBr)[C@@H]1CC[C@]2(C(=O)N[C@@H](CC(C)C)C(=O)O)CC[C@]3(C)[C@H](CC[C@@H]4[C@@]5(C)CC[C@H](OC(=O)CC(C)(C)C(=O)O)C(C)(C)[C@@H]5CC[C@]43C)[C@@H]12 | 33.2 | 3020 | 7.96 |  | 
C=C(COCCC)[C@@H]1CC[C@]2(C(=O)N[C@@H](CC(C)C)C(=O)O)CC[C@]3(C)[C@H](CC[C@@H]4[C@@]5(C)CC[C@H](O)C(C)(C)[C@@H]5CC[C@]43C)[C@@H]12 | 25.3 |  |  | Not Active | 
C=C(COCCN1CCOCC1)[C@@H]1CC[C@]2(C(=O)NCCCCCCCC(=O)NC)CC[C@]3(C)[C@H](CC[C@@H]4[C@@]5(C)CC[C@H](O)C(C)(C)[C@@H]5CC[C@]43C)[C@@H]12 | 22.3 | 250 | 7.05 |  | selectivity ratio [10]: > 138; pEC50 [8]: 7.05; CC50 (MT4): > 10 µM
C=C(C)[C@@H]1CC[C@]2(C(=O)N[C@@H](CC(C)C)C(=O)O)CC[C@]3(C)[C@H](CC[C@@H]4[C@@]5(C)CC[C@H](NC(=O)CC(C)(C)C(=O)O)C(C)(C)[C@@H]5CC[C@]43C)[C@@H]12 | 35.9 | 2.7 | 4.88 |  | 
C=C(CBr)[C@@H]1CC[C@]2(C(=O)NCCCCCCCC(=O)O)CC[C@]3(C)[C@H](CC[C@@H]4[C@@]5(C)CC[C@H](O)C(C)(C)[C@@H]5CC[C@]43C)[C@@H]12 | 36.9 | 16.1 | 5.64 |  | 
C=C(C)[C@@H]1CC[C@]2(C(=O)N3CCC(CCCC(=O)NC)CC3)CC[C@]3(C)[C@H](CC[C@@H]4[C@@]5(C)CC[C@H](OC(=O)CC(C)(C)C(=O)O)C(C)(C)[C@@H]5CC[C@]43C)[C@@H]12 | 33.3 | 497 | 7.17 |  | pEC50 [8]: 6.62; CC50 (MT4): > 10 µM
C=C(C)[C@@H]1CC[C@]2(C(=O)N3CCC(CCCC(=O)NCCN4CCOCC4)CC3)CC[C@]3(C)[C@H](CC[C@@H]4[C@@]5(C)CC[C@H](OC(=O)CC(C)(C)C(=O)O)C(C)(C)[C@@H]5CC[C@]43C)[C@@H]12 | 17.3 | 2470 | 8.15 |  | selectivity ratio [10]: 284; pEC50 [8]: 7.46; CC50 (MT4): 8.5 µM
C=C(C)[C@@H]1CC[C@]2(C(=O)N3CCC(CCCC(=O)O)CC3)CC[C@]3(C)[C@H](CC[C@@H]4[C@@]5(C)CC[C@H](O)C(C)(C)[C@@H]5CC[C@]43C)[C@@H]12 | 41 | 1.9 | 4.66 |  | remaining at 5 min, 1 mg/mL [1]: 102%; remaining at 1 h, 1 mg/mL [2]: 62.7%; remaining at 2 h, 1 mg/mL [4]: 53.8%; remaining at 0.5 h, 1 mg/mL [5]: 81.4%; remaining at 0.25 h, 1 mg/mL [7]: 97.6%
C=C(COCCc1ccc(F)cc1)[C@@H]1CC[C@]2(C(=O)N[C@@H](CC(C)C)C(=O)O)CC[C@]3(C)[C@H](CC[C@@H]4[C@@]5(C)CC[C@H](O)C(C)(C)[C@@H]5CC[C@]43C)[C@@H]12 | 24.4 |  |  | Not Active | 
C=C(C)[C@@H]1CC[C@]2(C(=O)N3CCC(CCCC(=O)O)CC3)CC[C@]3(C)[C@H](CC[C@@H]4[C@@]5(C)CC[C@H](OC(=O)CC(C)(C)C(=O)O)C(C)(C)[C@@H]5CC[C@]43C)[C@@H]12 | 20.8 | 1390 | 7.82 |  | 
C=C(COCCc1ccc(Cl)cc1)[C@@H]1CC[C@]2(C(=O)N[C@@H](CC(C)C)C(=O)O)CC[C@]3(C)[C@H](CC[C@@H]4[C@@]5(C)CC[C@H](O)C(C)(C)[C@@H]5CC[C@]43C)[C@@H]12 | 34.6 | 1.2 | 4.56 |  | 
C=C(COCCN1CCOCC1)[C@@H]1CC[C@]2(C(=O)N[C@@H](CC(C)C)C(=O)O)CC[C@]3(C)[C@H](CC[C@@H]4[C@@]5(C)CC[C@H](O)C(C)(C)[C@@H]5CC[C@]43C)[C@@H]12 | 35.8 | 1.4 | 4.58 |  | 
C=C(CON1CCOCC1)[C@@H]1CC[C@]2(C(=O)N[C@@H](CC(C)C)C(=O)O)CC[C@]3(C)[C@H](CC[C@@H]4[C@@]5(C)CC[C@H](O)C(C)(C)[C@@H]5CC[C@]43C)[C@@H]12 | 27.5 |  |  | Not Active | 
C=C(COCCc1ccccc1)[C@@H]1CC[C@]2(C(=O)N[C@@H](CC(C)C)C(=O)O)CC[C@]3(C)[C@H](CC[C@@H]4[C@@]5(C)CC[C@H](O)C(C)(C)[C@@H]5CC[C@]43C)[C@@H]12 | 21.7 |  |  | Not Active | 
C=C(CO)[C@@H]1CC[C@]2(C(=O)NCCCCCCCC(=O)O)CC[C@]3(C)[C@H](CC[C@@H]4[C@@]5(C)CC[C@H](O)C(C)(C)[C@@H]5CC[C@]43C)[C@@H]12 | 40.7 | 2.8 | 4.83 |  | 
C=C(COCCc1ccc(OC)cc1)[C@@H]1CC[C@]2(C(=O)N[C@@H](CC(C)C)C(=O)O)CC[C@]3(C)[C@H](CC[C@@H]4[C@@]5(C)CC[C@H](O)C(C)(C)[C@@H]5CC[C@]43C)[C@@H]12 | 16.7 |  |  | Not Active | 
C=C(COCC)[C@@H]1CC[C@]2(C(=O)N[C@@H](CC(C)C)C(=O)O)CC[C@]3(C)[C@H](CC[C@@H]4[C@@]5(C)CC[C@H](O)C(C)(C)[C@@H]5CC[C@]43C)[C@@H]12 | 40.7 |  |  | Not Active | 
C=C(COCCc1ccc(Br)cc1)[C@@H]1CC[C@]2(C(=O)N[C@@H](CC(C)C)C(=O)O)CC[C@]3(C)[C@H](CC[C@@H]4[C@@]5(C)CC[C@H](O)C(C)(C)[C@@H]5CC[C@]43C)[C@@H]12 | 20.8 |  |  | Not Active | 
C=C(COCCN1CCOCC1)[C@@H]1CC[C@]2(C(=O)NCCCCCCCC(=O)O)CC[C@]3(C)[C@H](CC[C@@H]4[C@@]5(C)CC[C@H](O)C(C)(C)[C@@H]5CC[C@]43C)[C@@H]12 | 24.8 | 13.8 | 5.74 |  | 
C=C(CO)[C@@H]1CC[C@]2(C(=O)N[C@@H](CC(C)C)C(=O)O)CC[C@]3(C)[C@H](CC[C@@H]4[C@@]5(C)CC[C@H](O)C(C)(C)[C@@H]5CC[C@]43C)[C@@H]12 | 30.7 |  |  | Not Active | 
C=C(COCCCC)[C@@H]1CC[C@]2(C(=O)N[C@@H](CC(C)C)C(=O)O)CC[C@]3(C)[C@H](CC[C@@H]4[C@@]5(C)CC[C@H](O)C(C)(C)[C@@H]5CC[C@]43C)[C@@H]12 | 24.9 |  |  | Not Active | 
C=C(C)[C@@H]1CC[C@]2(C(=O)N3CCC(CCCC(=O)O)CC3)CC[C@]3(C)[C@H](CC[C@@H]4[C@@]5(C)CC[C@H](OC(=O)CCC(C)(C)C(=O)O)C(C)(C)[C@@H]5CC[C@]43C)[C@@H]12 | 33.2 | 145 | 6.64 |  | 
C=C(C)[C@@H]1CC[C@]2(C(=O)NCCCCCCCNC(C)=O)CC[C@]3(C)[C@H](CC[C@@H]4[C@@]5(C)CC[C@H](O)C(C)(C)[C@@H]5CC[C@]43C)[C@@H]12 |  |  |  |  | selectivity ratio [10]: > 150; pEC50 [8]: 7.04; CC50 (MT4): > 10 µM
C=C(C)[C@@H]1CC[C@]2(C(=O)N3CCC(CCCC(=O)NCCCN4CCOCC4)CC3)CC[C@]3(C)[C@H](CC[C@@H]4[C@@]5(C)CC[C@H](OC(=O)CC(C)(C)C(=O)O)C(C)(C)[C@@H]5CC[C@]43C)[C@@H]12 | 18.5 | 3090 | 8.22 |  | selectivity ratio [10]: 246; pEC50 [8]: 7.51; CC50 (MT4): 8.6 µM
Cc1cn([C@H]2C[C@H](N=[N+]=[N-])[C@@H](CO)O2)c(=O)[nH]c1=O [ZIDOVUDINE] | 1870 |  |  |  | 
